Experimental data as given in PMC9849758, “Chemically diverse activity-based probes with unexpected inhibitory mechanisms targeting trypsin-like serine proteases” (Frontiers in Chemistry, 2023).
Where two headings read alike, the source gives them in different places.

Legend:
Format in all cases: biochemical
CatG = biological target: T1, CatG (Homo sapiens, UniProt P08311); experiment: Jump dilution, determination of inhibition type; set-up: Cathepsin G (cathepsin G human neutrophil, Sigma-Aldrich); purchased Sigma-Aldrich; conditions: inhibitor at 10 times IC50, 15 min, diluted 10-fold or 100-fold; Rev./Irrev.
T1 sequence (P08311 21-255): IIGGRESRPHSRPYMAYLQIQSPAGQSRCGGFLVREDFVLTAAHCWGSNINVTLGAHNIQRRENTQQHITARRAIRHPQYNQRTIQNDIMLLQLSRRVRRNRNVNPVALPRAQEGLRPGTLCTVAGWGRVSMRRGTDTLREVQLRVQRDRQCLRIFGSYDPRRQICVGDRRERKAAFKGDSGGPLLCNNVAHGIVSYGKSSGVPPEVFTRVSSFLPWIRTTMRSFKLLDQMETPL
Procedure: The dissociation of the enzyme-inhibitor complex was monitored by substrate hydrolysis over time ([Joossens et al., 2006]).
Because ABPs are designed to be irreversible serine protease inhibitors, the IC50 is exclusively used as a first discriminatory evaluation. When an inhibitor is irreversible, its IC50 value not only depends on the substrate and enzyme concentration but also on the time of incubation with the enzyme before the reaction is started by adding the substrate. […] The progress curve in the presence of an irreversible inhibitor will show final velocities equal to zero (Figure 6C). In contrast, for a reversible inhibitor, progress curves have a non-zero final steady-state velocity (Figure 6A) ([McWhirter, 2021]). To corroborate the inhibitory mechanism of the compounds, jump-dilution assays were performed. These use an inhibitor concentration of 10-fold the IC50 for the incubation, and a posteriori, the reaction mixture is diluted 10-fold or 100-fold before adding the substrate. In the case of an irreversible inhibitor, enzymatic activity is not regained (Figure 6D), whereas, in the case of a reversible compound, a slow release of the inhibitor and a gradual increase of the enzymatic activity rate is observed (Figure 6B) ([Copeland, 2013]; [McWhirter, 2021]). The jump-dilution assays confirmed the behavior described by the progress curves.
2.2.2 Jump dilution results
Supplementary Table 2. Jump dilution of selected alkyne and desthiobiotin probes against a panel of trypsin-like serine proteases. […]
# R R DtBa 3 tryptase Thrombin uPA CatG
32b H Alk Irrev. Irrev. Rev. Irrev. Rev.
45b DtB Irrev. Irrev. Rev. N.D. N.D.
33b Alk Irrev. Irrev. Rev. Irrev. Rev.
46b Cl DtB Irrev. Irrev. Rev. N.D. N.D.
34b H Alk Rev. Rev. Rev. Irrev. Rev.
50b DtB Rev. Rev. Rev. Irrev. Rev.
35b Alk Rev. Rev. Rev. Irrev. Rev.
52b NHCOMe DtB Rev. Rev. Rev. Irrev. Rev.
36b Alk Rev. Rev. Rev. Irrev. Rev.
54b Cl DtB Rev. Rev. Rev. Irrev. Rev.
37b Alk Irrev. Irrev. N.D. Irrev. Irrev.
55b H DtB Irrev. Irrev. N.D. Irrev. Irrev.
38b Alk Irrev. Irrev. N.D. Irrev. Irrev.
56b NHCOMe DtB Irrev. Irrev. N.D. Irrev. Irrev.
39b Alk Irrev. Irrev. N.D. Irrev. Rev.
57b Cl DtB Irrev. Irrev. N.D. Irrev. Rev.
41b H Alk Irrev. Irrev. Irrev. N.D. N.D.
31b Pro-Lys H Alk Irrev. Irrev. Irrev. Irrev. N.D. a Alk: ABP precursor bearing an alkyne; DtB: desthiobiotin probe b Panel of serine proteases abbreviations: urokinase plasminogen activator (uPA), cathepsin G (catG) N.D.: IC50 is greater than 10µM, and jump dilution was not performed
2.2.3 Progress curves and Jump dilution experiments
Kinetic assays were performed in the following manner. The inhibitor was mixed with the substrate, and the buffer solution with the enzyme was added at the time zero. The progress curves show the release of para-nitroaniline (pNA) or 7-amino-4-methyl coumarin (AMC) as a function of time.
To monitor the dissociation of the inhibitor-enzyme, aliquots of the enzyme were incubated at 37 °C without and with the inhibitor at a concentration 10 times higher than its IC 50. The enzyme […]
min, the aliquots were diluted 10-fold or 100-fold into the substrate concentration and assay buffer used for the IC50 determination. The dissociation of the enzyme-inhibitor complex was monitored by substrate hydrolysis over time. Blue lines represent the control where no inhibitor was present. Pink lines represent the assay with inhibitor.

[1] = biological target: T2, Trypsin-3 (recombinant trypsin-3) (Homo sapiens, UniProt P35030); experiment: IC50 determination, spectrophotometric protease assay
T2 construct: purchased R&D
T2 sequence (P35030 1-304): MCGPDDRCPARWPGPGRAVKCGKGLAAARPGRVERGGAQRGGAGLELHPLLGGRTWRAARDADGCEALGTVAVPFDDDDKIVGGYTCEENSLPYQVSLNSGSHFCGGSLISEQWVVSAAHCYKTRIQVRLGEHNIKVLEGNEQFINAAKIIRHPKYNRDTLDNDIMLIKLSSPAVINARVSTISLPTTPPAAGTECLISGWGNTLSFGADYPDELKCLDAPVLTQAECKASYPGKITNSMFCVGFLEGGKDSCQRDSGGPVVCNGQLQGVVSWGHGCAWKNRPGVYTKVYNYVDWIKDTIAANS
Procedure: (§1) The IC50 values were determined using a spectrophotometric assay. All the experiments were conducted in duplicate. The readout consisted of evaluating the protease-mediated release of the chromophore para-nitroaniline (pNA) or fluorophore 7-amino-4-methyl coumarin (AMC) moieties from the respective substrates. Enzymatic activity was measured for 30 min at 37°C. All compounds were initially screened at three concentrations (10, 1, and .1 μM) to estimate the range of the IC50 value. Those which were able to reduce protease activity by at least 50% at a concentration of 10 μM were submitted to an exact IC50 determination. […] A third independent experiment was performed when the standard deviation of the two independent experiments was higher than […]. IC50 values were obtained by fitting the data with the four-parameter logistics equation using GraphPad Prism 9.
(§2) The conditions for each protease are described as follows, the concentration of substrate used was at the corresponding Km.

[2] = biological target: T3, Thrombin (recombinant thrombin) (Homo sapiens, UniProt P00734); experiment: as above
T3 construct: purchased R&D
Procedure: as §1, §2

[3] = biological target: T4, Cathepsin G (cathepsin G human neutrophil) (Homo sapiens, UniProt P08311); experiment: as above
T4 construct: Cathepsin G (cathepsin G human neutrophil, Sigma-Aldrich); purchased Sigma-Aldrich; host or cells: human neutrophil
T4 sequence (P08311 21-255): T1 sequence (P08311 21-255)
Procedure: as §1, §2

[4] = biological target: T5, β-tryptase (recombinant tryptase β-2) (Homo sapiens, UniProt P20231); experiment: as above
T5 construct: purchased EnzoLife Sciences
T5 sequence (P20231 31-275): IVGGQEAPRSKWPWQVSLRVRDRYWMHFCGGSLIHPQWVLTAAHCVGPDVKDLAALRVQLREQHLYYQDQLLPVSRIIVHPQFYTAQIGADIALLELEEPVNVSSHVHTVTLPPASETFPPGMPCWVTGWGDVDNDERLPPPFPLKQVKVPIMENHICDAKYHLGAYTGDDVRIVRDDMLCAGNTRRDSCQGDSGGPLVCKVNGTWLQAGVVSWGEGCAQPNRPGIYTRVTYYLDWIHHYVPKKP
Procedure: as §1, §2

[5] = biological target: T6, TLCK-treated pancreatic bovine chymotrypsin (Bos taurus, UniProt P00766); experiment: as above
T6 construct: TLCK-treated pancreatic bovine chymotrypsin (Sigma-Aldrich); purchased Sigma-Aldrich; host or cells: bovine pancreas
Procedure: as §1, §2

[6] = biological target: T7, uPA (recombinant urokinase plasminogen activator) (Homo sapiens, UniProt P00749); experiment: as above
T7 construct: purchased HYPHEN BioMed
Procedure: as §1, §2

[7] = read-out: Trypsin-3 IC50, desthiobiotin probes, 15 min preincubation at 37°C, mean ± SD
[8] = read-out: Thrombin IC50, desthiobiotin probes, 15 min preincubation at 37°C, mean ± SD
[9] = read-out: CatG IC50, desthiobiotin probes, 15 min preincubation at 37°C, mean ± SD
[10] = read-out: β-tryptase IC50, desthiobiotin probes, 15 min preincubation at 37°C, mean ± SD
[11] = read-out: ChTryp IC50, desthiobiotin probes, 15 min preincubation at 37°C, mean ± SD
[12] = read-out: uPA IC50, desthiobiotin probes, 15 min preincubation at 37°C, mean ± SD
[13] = alkyne probes, 15 min preincubation at 37°C, mean ± SD

SMILES | CatG jump dilution result (CatG) | IC50 [1] | IC50 [2] | IC50 [3] | IC50 [4] | IC50 [5] | IC50 [6] | IC50 [1, 7] | IC50 [2, 8] | IC50 [3, 9] | IC50 [4, 10] | IC50 [5, 11] | IC50 [6, 12] | CatG IC50 [3, 13] | uPA IC50 [6, 13]
C#CCCCOC(=O)NC(c1ccc(NC(=N)N)cc1)P(=O)(Oc1ccccc1)Oc1ccccc1.O=C(O)C(F)(F)F (stereo not drawn) [37b, Pent-4-yn-1-yl ((diphenoxyphosphoryl)(4-guanidinophenyl)methyl)carbamate trifluoroacetate salt] | Irrev. | 230 ± 10 nM | > 10000 nM | 640 ± 30 nM | 900 ± 100 nM | > 10000 nM | 1790 ± 3 nM |  |  |  |  |  |  |  | 
CC(=O)Nc1ccc(OP(=O)(Oc2ccc(NC(C)=O)cc2)C(Cc2ccc(NC(=N)N)cc2)NC(=O)OCCCc2cn(CCOCCOCCOCCNC(=O)CCCCC[C@H]3NC(=O)N[C@H]3C)nn2)cc1 (stereo partly drawn) [52b] | Rev. | 10 ± 1 nM | 760 ± 20 nM | 50 ± 7 nM | 70 ± 3 nM | > 10000 nM | 10 ± 3 nM |  |  |  |  |  |  |  | 
C[C@@H]1NC(=O)N[C@@H]1CCCCCC(=O)NCCOCCOCCOCCn1cc(CCCOC(=O)NC(CCCNC(=N)N)P(=O)(Oc2ccc(Cl)cc2)Oc2ccc(Cl)cc2)nn1 (stereo partly drawn) [46b] |  |  |  |  |  |  |  | 70 ± 2 nM | 40 ± 6 nM | > 10000 nM | 40 ± 6 nM | > 10000 nM | 420 ± 50 nM |  | 
C#CCCCOC(=O)NC(CCCNC(=N)N)P(=O)(Oc1ccc(Cl)cc1)Oc1ccc(Cl)cc1 (stereo not drawn) [33b] | Rev. | 40 ± 8 nM | 110 ± 7 nM | 2760 ± 50 nM | 170 ± 10 nM | > 10000 nM | 250 ± 30 nM |  |  |  |  |  |  |  | 
C[C@@H]1NC(=O)N[C@@H]1CCCCCC(=O)NCCOCCOCCOCCn1cc(CCCOC(=O)NC(c2ccc(NC(=N)N)cc2)P(=O)(Oc2ccc(Cl)cc2)Oc2ccc(Cl)cc2)nn1 (stereo partly drawn) [57b] | Rev. |  |  |  |  |  |  | 180 ± 70 nM | > 10000 nM | 120 ± 40 nM | 20 ± 0.2 nM | > 10000 nM | 160 ± 40 nM |  | 
C#CCCCOC(=O)NC(Cc1ccc(NC(=N)N)cc1)P(=O)(Oc1ccc(NC(C)=O)cc1)Oc1ccc(NC(C)=O)cc1 (stereo not drawn) [35b] | Rev. | < 1 nM | 1110 ± 50 nM | 60 ± 6 nM | 50 ± 3 nM | > 10000 nM | 5 ± 1 nM |  |  |  |  |  |  |  | 
C#CCCCOC(=O)NC(c1ccc(NC(=N)N)cc1)P(=O)(Oc1ccc(Cl)cc1)Oc1ccc(Cl)cc1 (stereo not drawn) [39b, Pent-4-yn-1-yl ((bis(4-chlorophenoxy)phosphoryl)(4-guanidinophenyl)methyl)carbamate] | Rev. | 90 ± 9 nM | > 10000 nM | 90 ± 22 nM | 70 ± 4 nM | > 10000 nM | 220 ± 60 nM |  |  |  |  |  |  |  | 
C#CCCCOC(=O)NC(C1CCN(C(=N)N)CC1)P(=O)(Oc1ccccc1)Oc1ccccc1 (stereo not drawn) [41b] |  | 40 ± 2 nM | 30 ± 1 nM | > 10000 nM | 8370 ± 440 nM | > 10000 nM | > 10000 nM |  |  |  |  |  |  | no inhibition | no inhibition
C[C@@H]1NC(=O)N[C@@H]1CCCCCC(=O)NCCOCCOCCOCCn1cc(CCCOC(=O)NC(CCCNC(=N)N)P(=O)(Oc2ccccc2)Oc2ccccc2)nn1 (stereo partly drawn) [45b] |  |  |  |  |  |  |  | 220 ± 20 nM | 610 ± 170 nM | > 10000 nM | 800 ± 50 nM | > 10000 nM | > 10000 nM |  | 
C[C@@H]1NC(=O)N[C@@H]1CCCCCC(=O)NCCOCCOCCOCCn1cc(CCCOC(=O)NC(Cc2ccc(NC(=N)N)cc2)P(=O)(Oc2ccc(Cl)cc2)Oc2ccc(Cl)cc2)nn1 (stereo partly drawn) [54b] | Rev. | 8 ± 2 nM | 200 ± 20 nM | 120 ± 10 nM | 110 ± 9 nM | 5600 ± 1060 nM | 6 ± 0.1 nM |  |  |  |  |  |  |  | 
C#CCCCOC(=O)NC(c1ccc(NC(=N)N)cc1)P(=O)(Oc1ccc(NC(C)=O)cc1)Oc1ccc(NC(C)=O)cc1 (stereo not drawn) [38b, Pent-4-yn-1-yl ((bis(4-acetamidophenoxy)phosphoryl)(4-guanidinophenyl)methyl) carbamate] | Irrev. | 40 ± 15 nM | > 10000 nM | 130 ± 10 nM | 120 ± 20 nM | > 10000 nM | 1520 ± 400 nM |  |  |  |  |  |  |  | 
C[C@@H]1NC(=O)N[C@@H]1CCCCCC(=O)NCCOCCOCCOCCn1cc(CCCOC(=O)NC(c2ccc(NC(=N)N)cc2)P(=O)(Oc2ccccc2)Oc2ccccc2)nn1 (stereo partly drawn) [55b] | Irrev. |  |  |  |  |  |  | 240 ± 10 nM | > 10000 nM | 1620 ± 90 nM | 370 ± 90 nM | > 10000 nM | 2220 ± 70 nM |  | 
CC(=O)Nc1ccc(OP(=O)(Oc2ccc(NC(C)=O)cc2)C(NC(=O)OCCCc2cn(CCOCCOCCOCCNC(=O)CCCCC[C@H]3NC(=O)N[C@H]3C)nn2)c2ccc(NC(=N)N)cc2)cc1 (stereo partly drawn) [56b] | Irrev. |  |  |  |  |  |  | 220 ± 4 nM | > 10000 nM | 620 ± 9 nM | 390 ± 100 nM | > 10000 nM | 5190 ± 80 nM |  | 
C#CCCCOC(=O)NC(Cc1ccc(NC(=N)N)cc1)P(=O)(Oc1ccccc1)Oc1ccccc1 (stereo not drawn) [34b] | Rev. | 1 ± 0.3 nM | 8490 ± 2250 nM | 450 ± 20 nM | 630 ± 30 nM | > 10000 nM |  |  |  |  |  |  |  |  | 
